Measurements taken from patent US10301304B2, “Selective inhibitor of phosphatidylinositol 3-kinase-gamma” (VERTEX PHARMACEUTICALS INCORPORATED, priority 2013, dated 2019).
One block for each molecule: values may come before it.

What was measured:
[1] = Intravenous bolus pharmacokinetics; type: in vivo, Rat; conditions: rat, plasma, Intravenous bolus, 0.5 mg/kg nominal dose; for AUC: iv, 0.5 mg/kg, read-out: Rat IV AUC; for clearance: read-out: Rat IV CL
Source text: Following intravenous administration of a single bolus dose, Compound 1 had low systemic clearance and a long half-life in all species tested. […] The volume of distribution was greater than the total body water, indicating distribution of Compound 1 to tissues.

[2] = Oral pharmacokinetics / bioavailability; type: in vivo, Rat; conditions: rat, in vivo, Oral gavage, 3 mg/kg nominal dose, vehicle 0.2%MC/1%SLS; for AUC: read-out: Rat PO AUC; for Cmax: read-out: Rat PO Cmax
Source text: The bioavailability in monkey (greater than 100%) may be explained by the tenfold difference between the IV and oral doses. Compound 1 was rapidly absorbed in all species, with maximum systemic concentration observed within approximately one to three hours of dosing.

[3] = system: collagen-induced arthritis (CIA); assay: therapeutic mouse collagen-induced arthritis (CIA) model; type: in vivo; design: Histopathology Summed Score, Knees / Therapeutic Paw Score AUC / Histopathology Summed Score, Six Joints / Histopathology Summed Score, Paws: scale not given here; conditions: Fostamatinib 30 mg/kg BID
Method: Compound 1 was tested in the therapeutic mouse collagen-induced arthritis (CIA) model at 2.5 mg/kg BID (5 mg/kg/day), 5 mg/kg BID (10 mg/kg/day) or 10 mg/kg BID (20 mg/kg/day). Fostamatinib, a Syk small molecule inhibitor used as a reference standard, was dosed orally at 30 mg/kg BID (60 mg/kg/day). Compounds were dosed for 10 days in a 12/12-hour BID dosing regimen until the end of the study. Compound 1 was formulated in 0.2% MC, 1% SLS. Dosing volume was 10 mL/kg. Terminal plasma samples were collected at 2, 4 and 12 hours post last dose. All four paws and both knees were collected and processed for histopathology.

[4] = system: CYP1A2; assay: CYP1A2 Induction in Human Hepatocytes; type: in vitro ADME; conditions: 50 μM Omeprazole
Method: CYP activity was determined by monitoring metabolite formation of specific CYP probe substrates (phenacetin for CYP1A2 and testosterone for CYP3A4) using LC-MS/MS. CYP messenger ribonucleic acid (mRNA) was analyzed by RT-PCR to confirm CYP induction potential.

AUC [1]: 330 ng·h/mL
clearance [1]: 22 mL/min/kg
AUC [2]: 600 ng·h/mL
Cmax [2]: 120 ng/mL
Compound: CCOc1cncc(-c2cc(C)c3c(n2)C(C)(C)N(c2cnn(CC(F)F)c2)C3=O)c1 [B, reference compound]

AUC [1]: 590 ng·h/mL
clearance [1]: 11 mL/min/kg
AUC [2]: 3000 ng·h/mL
Cmax [2]: 200 ng/mL
Compound: Cc1cc(-c2cncc(OCC(F)F)c2)nc2c1C(=O)N(c1cnn(CC(F)F)c1)C2(C)C [C, reference compound]

AUC [1]: 220 ng·h/mL
clearance [1]: 22 mL/min/kg
AUC [2]: 300 ng·h/mL
Cmax [2]: 60 ng/mL
Compound: COc1cncc(-c2cc(C)c3c(n2)C(C)(C)N(c2cnn(CC(F)F)c2)C3=O)c1 [Compound A, reference compound]

AUC [1]: 1200 ng·h/mL
clearance [1]: 7 mL/min/kg
AUC [2]: 9000 ng·h/mL
Cmax [2]: 500 ng/mL
Compound: Cc1cc(-c2cncc(OCC(F)(F)F)c2)nc2c1C(=O)N(c1cnn(CC(F)F)c1)C2(C)C [D, reference compound]

Compound: COc1cc(Nc2ncc(F)c(Nc3ccc4c(n3)N(COP(=O)(O)O)C(=O)C(C)(C)O4)n2)cc(OC)c1OC [Fostamatinib, reference compound]
clinical arthritis scores, therapeutic paws (FIG. 2), significantly reduced [3]: not
reduction of arthritis scores AUC, prophylactic paws only [3]: 32%
reduction of clinical arthritis scores AUC vs vehicle, all paws [3]: 25%
All Paw Score AUC ([3]; 10 days): *23.61
Histopathology Summed Score, Knees ([3]; 10 days): 8.90
Histopathology Summed Score, Paws ([3]; 10 days): 10.25
Histopathology Summed Score, Six Joints ([3]; 10 days): 9.80
Prophylactic Paw Score AUC ([3]; 10 days): *48.30
Therapeutic Paw Score AUC ([3]; 10 days): 46.15
Arthritis scores measured daily, all paws (FIG. 1) ([3]; *d2-11, vs vehicle): significantly reduced toward normal
clinical arthritis scores, prophylactic paws (FIG. 3) ([3]; *d5-9): significantly reduced

CYP1A2 mRNA message ([4]; lot 8123): 118.0 fold change
Phenacetin O-Dealkylation ([4]; lot 8123): 25.7 fold change
CYP1A2 mRNA message ([4]; lot LMP): 71.5 fold change
Phenacetin O-Dealkylation ([4]; lot LMP): 36.3 fold change
CYP1A2 mRNA message ([4]; lot YOW): 83.6 fold change
Phenacetin O-Dealkylation ([4]; lot YOW): 17.9 fold change
Compound: COc1ccc2[nH]c([S+]([O-])Cc3ncc(C)c(OC)c3C)nc2c1 (stereo not drawn) [Omeprazole, reference compound]
